Experiment [1] addresses T1, TYK2 JH2 (Homo sapiens, UniProt P29597).
T1 construct: purchased DiscoverX (KINOMEscan KdELECT service); host or cells: E. coli BL21-derived (T7 phage display) or HEK-293
In words: TYK2 JH2 binding assay (KINOMEscan KdELECT competitive binding). The conditions noted are these: TYK2 JH2 domain, DiscoverX KINOMEscan KdELECT (Assay A); read-out: Biochemical TYK2_DiscoverX_JH2_BND_Kd. Summed up: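 Beads carrying a biotinylated ligand were mixed with tagged JH2 kinase and compound (11 points, 3-fold steps, 0.9% DMSO) and shaken 1 h at room temperature. After washing, kinase was released with 0.5 μM untagged ligand over 30 min and measured by qPCR to derive Kd.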

Experiment [2] concerns JAK1/TYK2 pSTAT5 (Tyr694/699) in THP-1 cell line. In words: IFNa-stimulated JAK1/TYK2 pSTAT5 (Tyr694/699) inhibition cellular assay, AlphaLISA. The experiment is classed as cell-based. The note with it: Homo sapiens; THP-1 cells, IFNa-stimulated, AlphaLISA (Assay B); read-out: Cellular_THP1_IFNa-pSTATS_TYK2. Summed up: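 pSTAT5 (Tyr694/699) in lysates quantified by AlphaLISA (615 nm) after 30 min IFNa stimulation (100 ng/mL stock) of THP-1 cells. The cells, 2e4 per well in HBSS, had first been exposed 1 h at 37° C. to eight 6-fold compound dilutions, 10000 down to 0.04 nM final. IC50 fitted by 4PL regression, bottom 0, Hill slope −1.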

Consider 26 compounds from patent US20240025906A1 (NEURON23, INC., priority 2022, published 2024).

pIC50, pKd: −log10 of the molar value. Where only a bound is given, the exact number is not on record here.

T1 sequence (P29597 589-875 limits assumed): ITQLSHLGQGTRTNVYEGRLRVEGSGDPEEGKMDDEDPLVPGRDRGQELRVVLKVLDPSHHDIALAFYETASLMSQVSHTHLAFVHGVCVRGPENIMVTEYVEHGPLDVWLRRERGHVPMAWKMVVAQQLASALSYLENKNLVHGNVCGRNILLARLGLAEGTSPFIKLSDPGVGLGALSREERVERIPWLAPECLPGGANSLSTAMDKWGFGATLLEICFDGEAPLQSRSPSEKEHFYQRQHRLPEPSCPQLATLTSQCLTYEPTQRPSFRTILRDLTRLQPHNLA

In the case of `CNc1ncc(-c2nc3cc(O[C@H]4C[C@H](C#N)C4)ccc3o2)c2cc(NC(=O)C3CC3)ncc12` [Example 233, N-(5-(5-((1r,3r)-3-cyanocyclobutoxy)benzo[d]oxazol-2-yl)-8-(methylamino)-2,7-naphthyridin-3-yl)cyclopropanecarboxamide], the pKd in experiment [1] was no less than 7.00. For the same compound, the pIC50 in experiment [2] is no less than 6.30.
`CNc1ncc(-c2nc3cc(OCc4ccccc4)ccc3o2)c2cc(NC(=O)C3CC3)ncc12` [Example 234, N-(5-(5-(benzyloxy)benzo[d]oxazol-2-yl)-8-(methylamino)-2,7-naphthyridin-3-yl)cyclopropanecarboxamide]: the pKd in experiment [1] is no less than 7.00. In addition, in experiment [2], the pIC50 was no less than 6.30.
The like results for `CNc1ncc(-c2nc3cc(OCCN4CCOCC4)ccc3o2)c2cc(NC(=O)C3CC3)ncc12` [Example 235, N-(8-(methylamino)-5-(5-(2-morpholinoethoxy)benzo[d]oxazol-2-yl)-2,7-naphthyridin-3-yl)cyclopropanecarboxamide] were, in that order, no less than 7.00 and no less than 6.30.
With `CNc1ncc(-c2nc3cc(OCC(C)(C)C#N)ccc3o2)c2cc(NC(=O)C3CC3)ncc12` [Example 236, N-(5-(5-(2-cyano-2-methylpropoxy)benzo[d]oxazol-2-yl)-8-(methylamino)-2,7-naphthyridin-3-yl)cyclopropanecarboxamide], the pKd in experiment [1] is no less than 7.00. For the same compound, the pIC50 in experiment [2] was no less than 6.30.
For the compound `CNc1ncc(-c2nc3cc(C(N)=O)ccc3o2)c2cc(NC(=O)C3CC3)ncc12` [Example 237, 2-(6-(cyclopropanecarboxamido)-1-(methylamino)-2,7-naphthyridin-4-yl)benzo[d]oxazole-5-carboxamide], the pKd in experiment [1] is no less than 7.00. Also, in experiment [2], the pIC50 is no less than 6.30.
With `CNC(=O)c1ccc2oc(-c3cnc(NC)c4cnc(NC(=O)C5CC5)cc34)nc2c1` [Example 238, 2-(6-(cyclopropanecarboxamido)-1-(methylamino)-2,7-naphthyridin-4-yl)-N-methylbenzo[d]oxazole-5-carboxamide], the pKd in experiment [1] is no less than 7.00. Further, the pIC50 in experiment [2] was no less than 6.30.
As to `CNc1ncc(-c2nc3cc(OC[C@@H](C)O)ccc3o2)c2cc(NC(=O)C3CC3)ncc12` [Example 239, (R)—N-(5-(5-(2-hydroxypropoxy)benzo[d]oxazol-2-yl)-8-(methylamino)-2,7-naphthyridin-3-yl)cyclopropanecarboxamide], in experiment [1], the pKd was no less than 7.00. In experiment [2], the pIC50 was no less than 6.30.
The matching figures for `CNc1ncc(-c2nc3cc(OC[C@H](C)O)ccc3o2)c2cc(NC(=O)C3CC3)ncc12` [Example 240, (S)—N-(5-(5-(2-hydroxypropoxy)benzo[d]oxazol-2-yl)-8-(methylamino)-2,7-naphthyridin-3-yl)cyclopropanecarboxamide]: no less than 7.00 and no less than 6.30.
Turning to `CNc1ncc(-c2nc3cc(OC[C@@H](C)OC)ccc3o2)c2cc(NC(=O)C3CC3)ncc12` [Example 241, (R)—N-(5-(5-(2-methoxypropoxy)benzo[d]oxazol-2-yl)-8-(methylamino)-2,7-naphthyridin-3-yl)cyclopropanecarboxamide], in experiment [1], the pKd was no less than 7.00. Further, in experiment [2], the pIC50 was no less than 6.30.
The matching figures for `CNc1ncc(-c2nc3cc(OC[C@H](C)OC)ccc3o2)c2cc(NC(=O)C3CC3)ncc12` [Example 242, (S)—N-(5-(5-(2-methoxypropoxy)benzo[d]oxazol-2-yl)-8-(methylamino)-2,7-naphthyridin-3-yl)cyclopropanecarboxamide]: no less than 7.00 and no less than 6.30.
As for `CNc1ncc(-c2nc3cc(C(C)(F)F)ccc3o2)c2cc(NC(=O)C3CC3)ncc12` [Example 243, N-(5-(5-(1,1-difluoroethyl)benzo[d]oxazol-2-yl)-8-(methylamino)-2,7-naphthyridin-3-yl)cyclopropanecarboxamide], the pKd in experiment [1] was no less than 7.00. For the same compound, the pIC50 in experiment [2] is no less than 6.30.
On to `CNc1ncc(-c2nc3cc(C(F)F)ccc3o2)c2cc(NC(=O)C3CC3)ncc12` [Example 244, N-(5-(5-(difluoromethyl)benzo[d]oxazol-2-yl)-8-(methylamino)-2,7-naphthyridin-3-yl)cyclopropanecarboxamide], for which the pKd in experiment [1] is no less than 7.00. The pIC50 in experiment [2] is no less than 6.30.
Turning to `CNc1ncc(-c2nc3cc(CC#N)ccc3o2)c2cc(NC(=O)C3CC3)ncc12` [Example 245, N-(5-(5-(cyanomethyl)benzo[d]oxazol-2-yl)-8-(methylamino)-2,7-naphthyridin-3-yl)cyclopropanecarboxamide], the pKd in experiment [1] is no less than 7.00. Also, in experiment [2], the pIC50 is no less than 6.30.
As to `CCOc1ccc2oc(-c3cnc(NC)c4cnc(NC(=O)C5CC5)cc34)nc2c1` [Example 246, N-(5-(5-ethoxybenzo[d]oxazol-2-yl)-8-(methylamino)-2,7-naphthyridin-3-yl)cyclopropanecarboxamide], the pKd in experiment [1] was no less than 7.00. Moreover, in experiment [2], the pIC50 is no less than 6.30.
For the compound `CNc1ncc(-c2nc3cc(OCC(F)F)ccc3o2)c2cc(NC(=O)C3CC3)ncc12` [Example 247, N-(5-(5-(2,2-difluoroethoxy)benzo[d]oxazol-2-yl)-8-(methylamino)-2,7-naphthyridin-3-yl)cyclopropanecarboxamide], the pKd in experiment [1] was no less than 7.00. The pIC50 in experiment [2] is no less than 6.30.
The like results for `CNc1ncc(-c2nc3cc(COC)ccc3o2)c2cc(NC(=O)C3CC3)ncc12` [Example 248, N-(5-(5-(methoxymethyl)benzo[d]oxazol-2-yl)-8-(methylamino)-2,7-naphthyridin-3-yl)cyclopropanecarboxamide] were, in that order, no less than 7.00 and no less than 6.30.
The matching figures for `CNc1ncc(-c2nc3cc(C4CCOCC4C)ccc3o2)c2cc(NC(=O)C3CC3)ncc12` (stereo not shown) [Example 249, N-(8-(methylamino)-5-(5-(3-methyltetrahydro-2H-pyran-4-yl)benzo[d]oxazol-2-yl)-2,7-naphthyridin-3-yl)cyclopropanecarboxamide]: no less than 7.00 and no less than 6.30.
For `CNc1ncc(-c2nc3cc(OC4CN(S(C)(=O)=O)C4)ccc3o2)c2cc(NC(=O)C3CC3)ncc12` [Example 250, N-(8-(methylamino)-5-(5-((1-(methylsulfonyl)azetidin-3-yl)oxy)benzo[d]oxazol-2-yl)-2,7-naphthyridin-3-yl)cyclopropanecarboxamide], the pKd in experiment [1] was no less than 7.00. Also, the pIC50 in experiment [2] is no less than 6.30.
The matching figures for `CNc1ncc(-c2nc3cc(OC4CN(C5CCOC5)C4)ccc3o2)c2cc(NC(=O)C3CC3)ncc12` (stereo not shown) [Example 251, N-(8-(methylamino)-5-(5-((1-(tetrahydrofuran-3-yl)azetidin-3-yl)oxy)benzo[d]oxazol-2-yl)-2,7-naphthyridin-3-yl)cyclopropanecarboxamide]: no less than 7.00 and no less than 6.30.
In the case of `CNc1ncc(-c2nc3cc(C4CN(S(C)(=O)=O)C4)ccc3o2)c2cc(NC(=O)C3CC3)ncc12` [Example 252, N-(8-(methylamino)-5-(5-(1-(methylsulfonyl)azetidin-3-yl)benzo[d]oxazol-2-yl)-2,7-naphthyridin-3-yl)cyclopropanecarboxamide], in experiment [1], the pKd was no less than 7.00. Besides, the pIC50 in experiment [2] was no less than 6.30.
`CNc1ncc(-c2nc3cc(OC4CCOCC4)ccc3o2)c2cc(NC(=O)C3CC3)ncc12` [Example 253, N-(8-(methylamino)-5-(5-((tetrahydro-2H-pyran-4-yl)oxy)benzo[d]oxazol-2-yl)-2,7-naphthyridin-3-yl)cyclopropanecarboxamide]: the pKd in experiment [1] was no less than 7.00. The pIC50 in experiment [2] is no less than 6.30.
The like results for `CNc1ncc(-c2nc3ccc(CO)cc3o2)c2cc(NC(=O)C3CC3)ncc12` [Example 254, N-(5-(6-(hydroxymethyl)benzo[d]oxazol-2-yl)-8-(methylamino)-2,7-naphthyridin-3-yl)cyclopropanecarboxamide] were, in that order, no less than 7.00 and no less than 6.30.
For the compound `CNc1ncc(-c2nc3cc(CC(F)(F)F)ccc3o2)c2cc(NC(=O)C3CC3)ncc12` [Example 255, N-(8-(methylamino)-5-(5-(2,2,2-trifluoroethyl)benzo[d]oxazol-2-yl)-2,7-naphthyridin-3-yl)cyclopropanecarboxamide], the pKd in experiment [1] was no less than 7.00. Besides, in experiment [2], the pIC50 was no less than 6.30.
The like results for `CNc1ncc(-c2nc3cc(OCC(C)(C)OC)ccc3o2)c2cc(NC(=O)C3CC3)ncc12` [Example 256, N-(5-(5-(2-methoxy-2-methylpropoxy)benzo[d]oxazol-2-yl)-8-(methylamino)-2,7-naphthyridin-3-yl)cyclopropanecarboxamide] were, in that order, no less than 7.00 and no less than 6.30.
The matching figures for `CNc1ncc(-c2nc3cc(CS(C)(=O)=O)ccc3o2)c2cc(NC(=O)C3CC3)ncc12` [Example 257, N-(8-(methylamino)-5-(5-((methylsulfonyl)methyl)benzo[d]oxazol-2-yl)-2,7-naphthyridin-3-yl)cyclopropanecarboxamide]: no less than 7.00 and no less than 6.30.
`CNc1ncc(-c2nc3cc(C4COC4)ccc3o2)c2cc(NC(=O)C3CC3)ncc12` [Example 258, N-(8-(methylamino)-5-(5-(oxetan-3-yl)benzo[d]oxazol-2-yl)-2,7-naphthyridin-3-yl)cyclopropanecarboxamide]: the pKd in experiment [1] was no less than 7.00. Also, in experiment [2], the pIC50 is no less than 6.30.
